From patent publication US20110098180A1, “Herbicide-Resistant Plants, And Polynucleotides And Methods For Providing Same” (United States Department of Agriculture, priority 2002, published 2011)
pIC50: −log10 of the molar value.

Columns and labels:
Assay in all cases: Cross resistance to bleaching herbicides, in vitro PDS inhibition, non-His-tagged (Table 2)
[1] = biological target: hydrilla PDS position 304 Arginine (wildtype) (Hydrilla verticillata, UniProt Q66PY0); format: biochemical; details: for pIC50: Arginine at 304, construct in frame with LacZalpha-ccdB, non-His-tagged, read-out: I50; for R/S: Arginine at 304 (reference), Table 2
Procedure: (§1) The expression constructs in Table 2 were derived from an original clone of the susceptible PDS gene from Hydrilla and then the Arg^304 was mutated to the listed amino acid. Expression was under the control of the lac promoter but in frame with the initiation codon of the LacZalpha-ccdB gene in the pCR4-TOPO vector (Invitrogen Inc., CA, Cat. #K4575-01).
(§2) All mutagenesis was performed, unless stated otherwise, using the TOPO-vector containing the wildtype (H4) PDS-sequence, which was extracted from an overnight culture with the Qiagen Plasmid Prep Kit as described above. The amount of the extracted plasmid was diluted to 10 ng/μl and used as template in a mutagenesis-procedure using the QuikChange Site-directed Mutagenesis Kit (Stratagene, Calif., #200518). The design of the mutagenesis-primers was conducted according to the manufacturers protocol to enable the specific change of Arg^304-codon to code for the desired amino acid. Primers (purchased from MWG-Biotech) and their introduced amino acid change are listed below with the changed codon underlined:
(§3) The reactions were performed according to the manufacturers protocol. Reactions were set up in MicroAmp-tubes on ice with 38 μl ddH2O, 5 μl 10× reaction buffer, 2 μl plasmid (10 ng/μl), 1.25 μl forward-mutagenesis primer (100 ng/μl), 1.25 μl of reverse mutagenesis primer (100 ng/μl), 1 μl dNTP-mix and 1 μl PfuTurboDNA polymerase (2.5 U/μl). The reactions were placed in a PE 9700 thermal cycler and heated to 95° C. for 30 sec followed by 12 rounds at 95° C. for 30 sec, 55° C. for 1 min and 68° C. for 12 min. The PCR was followed by a DpnI-digestion and transformation in XL1-Blue supercompetent cells as described in the manual. 4-6 resulting colonies were grown overnight in LB-medium with kanamycin and plasmid DNA was isolated as described above. The plasmid was used as template for sequencing with M13 and internal PDS-primers as described above on a LiCOR-system. Sequences were assembled and analyzed using Seqman. Introduced mutations were identified and plasmids carrying the desired mutation(s) were transferred into competent TOP10-cells, using the transformation protocol from the TOPO TA Cloning Kit. Resulting colonies were grown overnight in Wu-broth with kanamycin, aliquoted and stored at −80° C. until further use. 1 ml of Wu-cultures was used to start 1-L LB-cultures with kanamycin as described before, to express active PDS-enzyme for testing as described.
(§4) Phytoene desaturase activity and its inhibition by herbicides was determined using an in vitro system using components derived from the in vivo production of phytoene and phytoene desaturase proteins. All mutations described in Examples 3 and 4 were tested. […] The clones were used for the heterologous expression of Hydrilla-PDS-enzyme. In particular, bacterial cultures were grown from single colonies overnight in Wu-broth (6.27 g/L K2HPO4, 1.8 g/L KH2PO4, 0.5 g/L Na-citrate, 0.9 g/L (NH4)2SO4, 10 g/L tryptone, 5 g/L yeast extract, 10 g/L NaCl, 44 ml/L glycerol, 0.1 mM MgSO4, pH 7.2) with kanamycin. 1-mL was aliquoted in centrifuge tube and stored at −80° C. For expression, 1 L LB-medium with kanamycin was inoculated with 1-mL Wu-culture and grown for 24 h at 37° C. to stationary phase with shaking at 200 rpm. The cells were collected by centrifugation at 2000×g. All of the following steps were done at 4° C. unless otherwise noted. Active soluble PDS enzyme was extracted by lysing the transformed E. coli cells using a French Press at 20,000 psi in assay buffer consisting of 100 mM Tris-HCl, pH 7.2, 10 mM magnesium-chloride, 0.1 mM NADP, 0.1 mM FAD, 10 mM cysteine, 5 mM DTT, 1 mM aminocaproic acid, and 1 μg/ml leupeptin. The soluble fraction containing PDS activity was obtained by centrifugation for 10 min at 1200×g. After 24 h they were centrifuged down and used in PDS enzyme activity assays as described below.

[2] = system: hydrilla PDS Arg^304 → Histidine; format: biochemical, Hydrilla verticillata; details: Histidine at 304 relative to Arginine; Table 2
Procedure: as §1, §2, §3, §4

[3] = system: hydrilla PDS Arg^304 → Serine; format: biochemical, Hydrilla verticillata; details: Serine at 304 relative to Arginine; Table 2
Procedure: as §1, §2, §3, §4

[4] = biological target: hydrilla PDS Arg^304 → Cysteine (Hydrilla verticillata, UniProt Q66PY0, R304C); format: biochemical; details: Cysteine at 304; construct in frame with LacZalpha-ccdB, non-His-tagged; read-out: I50
Procedure: as §1, §2, §3, §4

[5] = system: hydrilla PDS Arg^304 → Cysteine; format: biochemical, Hydrilla verticillata; details: Cysteine at 304 relative to Arginine; Table 2
Procedure: as §1, §2, §3, §4

[6] = biological target: hydrilla PDS Arg^304 → Histidine (Hydrilla verticillata, UniProt Q66PY0, R304H); format: biochemical; details: Histidine at 304; construct in frame with LacZalpha-ccdB, non-His-tagged; read-out: I50
Procedure: as §1, §2, §3, §4

Chain of hydrilla PDS Arg^304 → Cysteine (Hydrilla verticillata, UniProt Q66PY0, R304C) (Q66PY0 1-580 R304C): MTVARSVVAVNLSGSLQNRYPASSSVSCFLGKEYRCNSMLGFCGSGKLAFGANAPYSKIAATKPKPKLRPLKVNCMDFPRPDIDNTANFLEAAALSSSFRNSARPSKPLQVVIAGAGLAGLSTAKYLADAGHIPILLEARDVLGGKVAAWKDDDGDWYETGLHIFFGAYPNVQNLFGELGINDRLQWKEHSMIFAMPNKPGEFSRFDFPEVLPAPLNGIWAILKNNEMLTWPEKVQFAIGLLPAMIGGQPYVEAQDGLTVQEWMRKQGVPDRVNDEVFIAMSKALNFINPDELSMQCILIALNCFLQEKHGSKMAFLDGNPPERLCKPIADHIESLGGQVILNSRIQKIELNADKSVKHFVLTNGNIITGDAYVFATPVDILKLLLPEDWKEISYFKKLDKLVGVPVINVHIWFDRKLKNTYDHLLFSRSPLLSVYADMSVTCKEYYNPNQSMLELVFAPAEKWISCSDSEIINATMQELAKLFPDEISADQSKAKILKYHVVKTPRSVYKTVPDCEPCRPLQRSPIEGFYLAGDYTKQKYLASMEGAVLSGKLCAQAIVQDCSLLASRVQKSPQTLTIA
Chain of hydrilla PDS Arg^304 → Histidine (Hydrilla verticillata, UniProt Q66PY0, R304H) (Q66PY0 1-580 R304H): as the sequence (Q66PY0 1-580 R304C) above, with C304H counted along it
Chain of hydrilla PDS position 304 Arginine (wildtype) (Q66PY0 1-580): as the sequence (Q66PY0 1-580 R304C) above, with C304R counted along it

Row | Compound | pIC50 [1] | R/S [2] | R/S [3] | pIC50 [4] | R/S [5] | pIC50 [6] | R/S [1]
1 | CNc1cnn(-c2cccc(C(F)(F)F)c2)c(=O)c1Cl [Norflurazon] | 5.51 | 1.6 | 17.7 | 4.05 | 28.8 | 5.30 | 
2 | CNC1=C(c2cccc(C(F)(F)F)c2)C(=O)C(c2ccccc2)O1 (centres unmarked) [Flurtamone] | 5.55 | 1.2 | 2.1 | 5.28 | 1.9 | 5.48 | 1
3 | CCC(Oc1ccc(F)c(C(F)(F)F)c1)C(=O)NCc1ccccc1 (centres unmarked) [Beflubutamid] | 5.37 | 0.7 | 0.6 | 5.46 | 0.8 | 5.52 | 1
4 | O=C(Nc1ccc(F)cc1)c1cccc(Oc2cccc(C(F)(F)F)c2)n1 [Piconilafen, Picolinafen] | 5.25 | 0.5 | 0.4 | 5.62 | 0.4 | 5.52 | 
5 | O=C1C(Cl)C(CCl)CN1c1cccc(C(F)(F)F)c1 (centres unmarked) [Fluorochloridone] | 4.91 | 1.1 | 1.9 | 4.35 | 3.6 | 4.85 | 1
6 | O=C(Nc1ccc(F)cc1F)c1cccnc1Oc1cccc(C(F)(F)F)c1 [Diflufenican] | 5.24 | 0.4 | 0.2 | 5.68 | 0.4 | 5.70 | 1
7 | Fluridone |  | 2.8 | 5.5 |  | 3.2 |  | 1
